Patent US4843085A, “Pyridine derivatives, process for production thereof and pharmaceutical compositions useful as anti-arhytmics” (Yamanouchi Pharmaceutical Co., Ltd., priority 1987, dated 1989)
Counter-ions that a name gives are not always drawn.

Tested on: corneal reflex responses
Test: Local anesthetic activity (corneal reflex responses)
Format: in vivo, guinea-pigs (male Hartley strain)
Details: instilled into the cornea, guinea-pigs
Description: Solutions of the compounds were instilled into the cornea, and the corneal reflex responses were determined.

| SMILES | ED50 (concentration required to inhibit corneal reflex responses by 50%) |
| --- | --- |
| COC(=O)c1c(C)nc(C)c(C(=O)OC)c1-c1cc([N+](=O)[O-])ccc1OCCCCNC[C@H](O)COc1ccccc1.O=C(O)C(=O)O.O=C(O)C(=O)O [Example 1, Dimethyl 4-[2-[4-[[(S)-2-hydroxy-3-phenoxypropyl]amino]butoxy]-5-nitrophenyl]-2,6-dimethylpyridine-3,5dicarboxylate dioxalate] | 0.49% |
| COC(=O)c1c(C)nc(C)c(C(=O)OC)c1-c1cc([N+](=O)[O-])ccc1OCCCCNC[C@@H](O)COc1ccccc1 [Example 2, Dimethyl 4-[2-[4-[[(R)-2-hydroxy-3-phenoxypropyl]amino]butoxy]-5-nitrophenyl]-2,6-dimethylpyridine-3,5-dicarboxylate oxalate] | 0.32% |
| CCN(CC)CC(=O)Nc1c(C)cccc1C [Lidocaine, reference compound] | 0.82% |
